Results published in patent US20250186391A1, “ORAL COMPLEMENT FACTOR D INHIBITORS” (BioCryst Pharmaceuticals, Inc., priority 2019, published 2025).

Target: Factor D (Homo sapiens (Human), UniProt P00746)
Test: Factor D esterolytic assay
Format: biochemical
Conditions: Z-Lys-SBzl substrate, 100 mM HEPES, 500 mM NaCl, pH 7.5, 10% DMSO; tested a minimum of three times; read-out: Measured Ki (IC50) Value for Compounds: IC50
Method: The IC50 value of a compound (i.e., the concentration of the compound that inhibits 50% of the enzymatic activity) was calculated according to the procedure reported in U.S. Pat. No. 6,653,340 B1, e.g., column 74 (incorporated by reference).
Specifically, the compounds were dissolved in a stock solution of DMSO at 10.0 or 100 mM. A portion of this stock solution was added to assay buffer in a final volume of 50 μL. Controls included buffer alone and enzyme solutions to which DMSO was added. Substrate was added to the reaction wells immediately or after incubation at room temperature. The reaction rates were measured spectrophotometrically by the generation of product at 405 nm for 600 sec. Background absorbance at 690 nm was measured and subtracted from the absorbance at 405 nm for each well.
The reaction rate for enzyme alone was compared to the rate of enzyme in the presence of inhibitor and the percent inhibition was calculated as shown below: […]
An established esterolytic assay for the measurement of Factor D activity and inhibition of Factor D activity was used (Kam, C. M.; McRae, B. J.; Harper, J. W.; Niemann, M. A.; Volanakis, J. E.; Powers, J. C. Human complement proteins D, C2, and B Active site mapping with peptide thioester substrates. J Biol. Chem. 1987, 262, 3444-3451). For this assay Z-Lys-SBzl, 1.29 mM (Kim, S.; Narayana, S. V. L; Volanakis, J. E. Mutational analysis of the substrate binding site of human complement Factor D. Biochemistry. 1994, 33, 14393-14399.) was used as the substrate for Factor D ([…]). Hydrolysis of this compound by Factor D liberated a free sulfhydryl group which is then reacted with 5,5′-dithiobis(2nitrobenzoic acid) producing an intense yellow color (Habeeb, A. F. S. A. Reaction of protein sulfhydryl groups with Ellman's Reagent. Methods in Enzymol. 1976, 25, 457-464.). The assays were performed in 96 well microtiter plates and rates of hydrolysis were monitored at 405 nm on a Biotek Synergy H1 plate reader. Hydrolysis rates were reported as change in mOD/min. The assay was conducted in 100 mM HEPES, 500 mM NaCl, pH 7.5 containing 10% DMSO in a final volume of 50 μL per well.
An IC50, a compound concentration which inhibits 50% of the enzymatic activity, was calculated. Compounds in the examples were tested a minimum of three times.

Sequence of Factor D (P00746 26-253): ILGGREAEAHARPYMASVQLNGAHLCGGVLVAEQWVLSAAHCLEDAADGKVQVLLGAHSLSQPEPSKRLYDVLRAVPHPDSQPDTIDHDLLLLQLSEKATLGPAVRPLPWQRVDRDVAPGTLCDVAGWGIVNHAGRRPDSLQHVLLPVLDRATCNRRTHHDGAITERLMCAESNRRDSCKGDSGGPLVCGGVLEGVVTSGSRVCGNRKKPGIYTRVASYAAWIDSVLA

IC50 | Structure (SMILES)
< 1000 nM | NCc1cccc(-c2cc(C(=O)NCC3CC3)cc3cc(COc4ccccc4CC(=O)O)oc23)c1 [Compound 32d, 2-(2-((7-(3-(aminomethyl)phenyl)-5-((cyclopropylmethyl)carbamoyl)benzofuran-2-yl)methoxy)phenyl)acetic acid]
< 1000 nM | NCc1cccc(-c2cc(COc3ccccc3)cc3cc(COc4ccccc4CC(=O)O)oc23)c1 [Compound 33f, 2-(2-((7-(3-(aminomethyl)phenyl)-5-(phenoxymethyl)benzofuran-2-yl)methoxy)phenyl)acetic acid]
> 10000 nM | NCc1cccc(-c2cccc3cc(COc4cccc(CC(=O)O)c4)oc23)c1 [Compound 34c, 2-(3-((7-(3-(aminomethyl)phenyl)benzofuran-2-yl)methoxy)phenyl)acetic acid]
> 10000 nM | NCc1cccc(-c2cccc3cc(COc4ccccc4CCC(=O)O)oc23)c1 [Compound 35c, 3-(2-((7-(3-(aminomethyl)phenyl)benzofuran-2-yl)methoxy)phenyl)propanoic acid]
> 10000 nM | NCc1cccc(-c2cccc3c(COc4ccccc4CC(=O)O)coc23)c1 [Compound 36e, 2-(2-((7-(3-(aminomethyl)phenyl)benzofuran-3-yl)methoxy)phenyl)acetic acid]
1000 to 10000 nM | NCc1cccc(-c2cc(C(=O)O)cc3cc(COc4ccccc4CC(=O)O)oc23)c1 [Compound 37b, 7-(3-(aminomethyl)phenyl)-2-((2-(carboxymethyl)phenoxy)methyl)benzofuran-5-carboxylic acid]
< 1000 nM | NCc1cccc(-c2coc3ccc(COc4ccccc4CC(=O)O)cc23)c1 [Compound 38e, 2-(2-((3-(3-(aminomethyl)phenyl)benzofuran-5-yl)methoxy)phenyl)acetic acid]
< 1000 nM | NCc1cccc(-c2ccc3occ(COc4cc(F)ccc4CC(=O)O)c3c2)c1 [Compound 39f, 2-(2-((5-(3-(aminomethyl)phenyl)benzofuran-3-yl)methoxy)-4-fluorophenyl)acetic acid]
< 1000 nM | NCc1cc(F)cc(-c2ccc3occ(COc4ccccc4CC(=O)O)c3c2)c1 [Compound 40c, 2-(2-((5-(3-(aminomethyl)-5-fluorophenyl)benzofuran-3-yl)methoxy)phenyl)acetic acid]
1000 to 10000 nM | NCc1cc(F)cc(-c2ccc3occ(Cc4cccc(CC(=O)O)c4O)c3c2)c1 [Compound 40d, 2-(3-((5-(3-(aminomethyl)-5-fluorophenyl)benzofuran-3-yl)methyl)-2-hydroxyphenyl)acetic acid]
> 10000 nM | NCc1cccc(-c2cccc3cc(COc4ccccc4CC(=O)O)ccc23)c1 [Compound 41d, 2-(2-((5-(3-(aminomethyl)phenyl)naphthalen-2-yl)methoxy)phenyl)acetic acid]
< 1000 nM | NCc1cccc(-c2ccc3occ(COc4ccccc4CC(=O)O)c3c2)c1F [Compound 42b, 2-(2-((5-(3-(aminomethyl)-2-fluorophenyl)benzofuran-3-yl)methoxy)phenyl)acetic acid]
< 1000 nM | NCc1cccc(-c2ccc3occ(Cc4cccc(CC(=O)O)c4O)c3c2)c1F [Compound 42c, 2-(3-((5-(3-(aminomethyl)-2-fluorophenyl)benzofuran-3-yl)methyl)-2-hydroxyphenyl)acetic acid]
> 10000 nM | NCc1cccc(-c2cccc3cc(COc4ccccc4CCC(=O)O)ccc23)c1 [Compound 43c, 3-(2-((5-(3-(aminomethyl)phenyl)naphthalen-2-yl)methoxy)phenyl)propanoic acid]
< 1000 nM | NCc1cccc(-c2ccc3occ(COc4c(F)cccc4CC(=O)O)c3c2)c1 [Compound 44d, 2-(2-((5-(3-(aminomethyl)phenyl)benzofuran-3-yl)methoxy)-3-fluorophenyl)acetic acid]
< 1000 nM | NCc1cccc(-c2ccc3occ(COc4ccc(F)cc4CC(=O)O)c3c2)c1F [Compound 45b, 2-(2-((5-(3-(aminomethyl)-2-fluorophenyl)benzofuran-3-yl)methoxy)-5-fluorophenyl)acetic acid]

IC50 | Structure (SMILES)
< 1000 nM | NCc1cccc(-c2ccc3occ(COc4c(F)cccc4CC(=O)O)c3c2)c1F [Compound 46b, 2-(2-((5-(3-(aminomethyl)-2-fluorophenyl)benzofuran-3-yl)methoxy)-3-fluorophenyl)acetic acid]
< 1000 nM | Cc1ccc(CC(=O)O)c(OCc2coc3ccc(-c4cccc(CN)c4)cc23)c1 [Compound 47d, 2-(2-((5-(3-(aminomethyl)phenyl)benzofuran-3-yl)methoxy)-4-methylphenyl)acetic acid]
< 1000 nM | COc1ccc(CC(=O)O)c(OCc2coc3ccc(-c4cccc(CN)c4)cc23)c1 [Compound 48b, 2-(2-((5-(3-(aminomethyl)phenyl)benzofuran-3-yl)methoxy)-4-methoxyphenyl)acetic acid]
< 1000 nM | CCc1ccc(CC(=O)O)c(OCc2coc3ccc(-c4cccc(CN)c4)cc23)c1 [Compound 49b, 2-(2-((5-(3-(aminomethyl)phenyl)benzofuran-3-yl)methoxy)-4-ethylphenyl)acetic acid]
< 1000 nM | NCc1nccc(-c2ccc3occ(COc4ccccc4CC(=O)O)c3c2)c1F [Compound 50d, 2-(2-((5-(2-(aminomethyl)-3-fluoropyridin-4-yl)benzofuran-3-yl)methoxy)phenyl)acetic acid]
< 1000 nM | N[C@H](CO)c1cccc(-c2ccc3occ(COc4ccccc4CC(=O)O)c3c2)c1 [Compound 51c, (S)-2-(2-((5-(3-(1-amino-2-hydroxyethyl)phenyl)benzofuran-3-yl)methoxy)phenyl)acetic acid]
< 1000 nM | C[C@@H](N)c1cccc(-c2ccc3occ(COc4ccccc4CC(=O)O)c3c2)c1 [Compound 52c, (R)-2-(2-((5-(3-(1-aminoethyl)phenyl)benzofuran-3-yl)methoxy)phenyl)acetic acid]
< 1000 nM | NCc1cc(-c2ccc3occ(COc4ccccc4CC(=O)O)c3c2)ccn1 [Compound 53b, 2-(2-((5-(2-(aminomethyl)pyridin-4-yl)benzofuran-3-yl)methoxy)phenyl)acetic acid]
< 1000 nM | C[C@H](N)c1cccc(-c2ccc3occ(COc4ccccc4CC(=O)O)c3c2)c1 [Compound 54c, (S)-2-(2-((5-(3-(1-aminoethyl)phenyl)benzofuran-3-yl)methoxy)phenyl)acetic acid]
< 1000 nM | NCc1cccc(-c2ccc3oc(C(=O)O)c(COc4ccccc4CC(=O)O)c3c2)c1 [Compound 55d, 5-(3-(aminomethyl)phenyl)-3-((2-(carboxymethyl)phenoxy)methyl)benzofuran-2-carboxylic acid]
< 1000 nM | NCc1cccc(-c2ccc3sc(C(=O)O)c(COc4ccccc4CC(=O)O)c3c2)c1 [Compound 56d, 5-(3-(aminomethyl)phenyl)-3-((2-(carboxymethyl)phenoxy)methyl)benzo[b]thiophene-2-carboxylic acid]
< 1000 nM | N#Cc1ccc(CC(=O)O)c(OCc2coc3ccc(-c4cccc(CN)c4)cc23)c1 [Compound 57d, 2-(2-((5-(3-(aminomethyl)phenyl)benzofuran-3-yl)methoxy)-4-cyanophenyl)acetic acid]
< 1000 nM | NCc1cccc(-c2cc(-c3cccc(CN)c3)c3oc(C(=O)O)c(COc4ccccc4CC(=O)O)c3c2)c1 [Compound 58f, 5,7-bis(3-(aminomethyl)phenyl)-3-((2-(carboxymethyl)phenoxy)methyl)benzofuran-2-carboxylic acid]
< 1000 nM | NCc1cccc(-c2cc([N+](=O)[O-])c3oc(C(=O)O)c(COc4ccccc4CC(=O)O)c3c2)c1 [Compound 59g, 5-(3-(aminomethyl)phenyl)-3-((2-(carboxymethyl)phenoxy)methyl)-7-nitrobenzofuran-2-carboxylic acid]
< 1000 nM | Cn1cc(-c2cc(-c3cccc(CN)c3)cc3c(COc4ccccc4CC(=O)O)c(C(=O)O)oc23)cn1 [Compound 60d, 5-(3-(aminomethyl)phenyl)-3-((2-(carboxymethyl)phenoxy)methyl)-7-(1-methyl-1H-pyrazol-4-yl)benzofuran-2-carboxylic acid]
< 1000 nM | COc1ccc(CC(=O)O)c(OCc2c(C(=O)O)oc3ccc(-c4cccc(CN)c4)cc23)c1 [Compound 61d, 5-(3-(aminomethyl)phenyl)-3-((2-(carboxymethyl)-5-methoxyphenoxy)methyl)benzofuran-2-carboxylic acid]
